Assays:
large crabgrass = experiment: Test E pre-/postemergence herbicide test; type: in vivo, Digitaria sanguinalis
Excerpt: (§1) Seeds of plant species selected from bipinnate beggarticks (Bidens bipinnata L.), hairy beggarticks (Bidens radiata Thuill.), bermudagrass (Cynodon dactylon (L.) Pers.), Surinam grass (Urochloa decumbens (Staph) R. D. Webster, previously named Brachiaria decumbens Stapf), large crabgrass (Digitaria sanguinalis (L.) Scop.), green foxtail (Setaria viridis (L.) P. Beauv.), goosegrass (Eleusine indica (L.) Gaertn.), johnsongrass (Sorghum halepense (L.) Pers.), kochia (Kochia scoparia (L.) Schrad.), pitted morningglory (Ipomoea lacunosa L.), purple nutsedge (Cyperus rotundus L.), common ragweed (Ambrosia elatior L.), mustard (Brassica nigra (L.) W. D. J. Koch), guineagrass (Panicum maximum Jacq.), dallisgrass (Paspalum dilatatum Poir.), barnyardgrass (Echinochloa crus-galli (L). P. Beauv.), southern sandbur (Cenchrus echinatus L.), common sowthistle (Sonchus oleraceous L.), prickly sida (Sida spinosa L.), Italian ryegrass (Lolium multiflorum Lam.), common purslane (Portulaca oleracea L.), broadleaf signalgrass (Brachiaria platyphylla (Griseb.) Nash), common groundsel (Senecio vulgaris L.), common chickweed (Stellaria media (L.) Vill/Cyr.), tropical spiderwort (Commelina benghalensis L.), annual bluegrass (Poa annua L.), downy bromegrass (Bromus tectorum L.), itchgrass (Rottboellia cochinchinensis (L.) L.f.), quackgrass (Elytrigia repens (L.) Nevski), Canada horseweed (Erigeron Canadensis L.), field bindweed (Convolvulus arvensis L.), spotted spurge (Euphorbia maculata L.), common mallow (Malva sylvestris (=s silvestris) L.), and Russian thistle (Salsola kali L. ssp. Ruthenica (Iljin) Soo) were planted and treated preemergence with test chemicals formulated in a non-phytotoxic solvent mixture which included a surfactant.
(§2) At the same time, plants selected from these weed species were treated with postemergence applications of some of the test chemicals formulated in the same manner. Plants ranged in height from 2 to 18 cm (1- to 4-leaf stage) for postemergence treatments. Treated plants and controls were maintained in a greenhouse for 12 to 14 days, after which time all species were compared to controls and visually evaluated. Plant response ratings, summarized in Table E, are based on a scale of 0 to 100 where 0 is no effect and 100 is complete control. A dash (-) response means no test result.

goosegrass = experiment: Test E pre-/postemergence herbicide test; type: in vivo, Eleusine indica
Excerpt: as §1, §2

pitted morningglory = experiment: Test E pre-/postemergence herbicide test; type: in vivo, Ipomoea lacunosa
Excerpt: as §1, §2

guineagrass = experiment: Test E pre-/postemergence herbicide test; type: in vivo, Panicum maximum
Excerpt: as §1, §2

common groundsel = experiment: Test E pre-/postemergence herbicide test; type: in vivo, Senecio vulgaris
Excerpt: as §1, §2

downy bromegrass = experiment: Test E pre-/postemergence herbicide test; type: in vivo, Bromus tectorum
Excerpt: as §1, §2

Canada horseweed = experiment: Test E pre-/postemergence herbicide test; type: in vivo, Erigeron Canadensis
Excerpt: as §1, §2

common mallow = experiment: Test E pre-/postemergence herbicide test; type: in vivo, Malva sylvestris
Excerpt: as §1, §2

winter barley = experiment: Test C postemergence herbicide test; type: in vivo, Hordeum vulgare
Summary of the method: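 Visual rating, 0 (no effect) to 100 (complete control), vs. controls at 12–14 d in greenhouse. Postemergence: 1–4-leaf plants, 2–18 cm. Paddy: flooded, barnyardgrass at 2-leaf stage.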

canarygrass = experiment: Test C postemergence herbicide test; type: in vivo, Phalaris minor
Summary of the method: (§3)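 Greenhouse test with a 12–14 day hold after application and visual comparison with controls. Emerged plants were 1- to 4-leaf stage (2–18 cm) when sprayed postemergence, and the paddy barnyardgrass was at 2 leaves under flooded conditions. 100 = complete control.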

green foxtail = experiment: Test C postemergence herbicide test; type: in vivo, Setaria viridis
Summary of the method: as §3

wild oat = experiment: Test C postemergence herbicide test; type: in vivo, Avenafatua
Summary of the method: as §3

windgrass = experiment: Test C postemergence herbicide test; type: in vivo, Apera spica-venti
Summary of the method: as §3

[1] = Postemergence, 500 g ai/ha, scale 0 to 100
[2] = Postemergence, 250 g ai/ha, scale 0 to 100
[3] = Preemergence, 62 g ai/ha, scale 0 to 100
[4] = Preemergence, 125 g ai/ha, scale 0 to 100
[5] = Preemergence, 250 g ai/ha, scale 0 (no effect) to 100 (complete control)
[6] = Preemergence, 500 g ai/ha, scale 0 (no effect) to 100 (complete control)
[7] = postemergence, 125 g ai/ha, scale 0 to 100
[8] = postemergence, 62 g ai/ha, scale 0 to 100
[9] = Postemergence, 250 g ai/ha, scale 0 to 100, 0 no effect, 100 complete control
[10] = postemergence, 31 g ai/ha, scale 0 to 100

CCc1nn(C(C)(C)C)cc1C(=O)Nc1cc(C(=O)N(C)C)ccc1F [Compound 222, N-[5-[(dimethylamino)carbonyl]-2-fluorophenyl]-1-(1,1-dimethylethyl)-3-ethyl-1H-pyrazole-4-carboxamide]
70: Plant response rating, Crabgrass, Large (large crabgrass; [3]) | Plant response rating, Guineagrass (guineagrass; [7]) | Plant response rating, Guineagrass (guineagrass; [8]) | Plant response rating, Groundsel (common groundsel; [7]) | Plant response rating, Mallow (common mallow; [3])
75: Plant response rating, Goosegrass (goosegrass; [4]) | Plant response rating, Goosegrass (goosegrass; [7])
100: Plant response rating, Crabgrass, Large (large crabgrass; [1]) | Plant response rating, Crabgrass, Large (large crabgrass; [4]) | Plant response rating, Crabgrass, Large (large crabgrass; [5]) | Plant response rating, Crabgrass, Large (large crabgrass; [6]) | Plant response rating, Guineagrass (guineagrass; [2]) | Plant response rating, Guineagrass (guineagrass; [5]) | Plant response rating, Guineagrass (guineagrass; [6]) | Plant response rating, Groundsel (common groundsel; [1]) | Plant response rating, Groundsel (common groundsel; [4]) | Plant response rating, Groundsel (common groundsel; [5]) | Plant response rating, Groundsel (common groundsel; [6]) | Plant response rating, Bromegrass, Downy (downy bromegrass; [6]) | Plant response rating, Horseweed (Canada horseweed; [1]) | Plant response rating, Horseweed (Canada horseweed; [3]) | Plant response rating, Horseweed (Canada horseweed; [4]) | Plant response rating, Horseweed (Canada horseweed; [5]) | Plant response rating, Horseweed (Canada horseweed; [6])
30: Plant response rating, Morningglory (pitted morningglory; [4]) | Plant response rating, Groundsel (common groundsel; [3]) | Plant response rating, Bromegrass, Downy (downy bromegrass; [3])
80: Plant response rating, Crabgrass, Large (large crabgrass; [7]) | Plant response rating, Bromegrass, Downy (downy bromegrass; [2]) | Plant response rating, Mallow (common mallow; [4])
10: Plant response rating, Bromegrass, Downy (downy bromegrass; [8])
95: Plant response rating, Goosegrass (goosegrass; [6]) | Plant response rating, Morningglory (pitted morningglory; [6]) | Plant response rating, Guineagrass (guineagrass; [4]) | Plant response rating, Groundsel (common groundsel; [2]) | Plant response rating, Mallow (common mallow; [5]) | Plant response rating, Mallow (common mallow; [6])
20: Plant response rating, Morningglory (pitted morningglory; [8]) | Plant response rating, Horseweed (Canada horseweed; [8])
60: Plant response rating, Crabgrass, Large (large crabgrass; [8]) | Plant response rating, Goosegrass (goosegrass; [3]) | Plant response rating, Goosegrass (goosegrass; [8]) | Plant response rating, Morningglory (pitted morningglory; [2]) | Plant response rating, Mallow (common mallow; [2]) | Plant response rating, Mallow (common mallow; [7])
40: Plant response rating, Morningglory (pitted morningglory; [5]) | Plant response rating, Morningglory (pitted morningglory; [7]) | Plant response rating, Groundsel (common groundsel; [8]) | Plant response rating, Horseweed (Canada horseweed; [7])
50: Plant response rating, Bromegrass, Downy (downy bromegrass; [7]) | Plant response rating, Mallow (common mallow; [8])
90: Plant response rating, Crabgrass, Large (large crabgrass; [2]) | Plant response rating, Goosegrass (goosegrass; [1]) | Plant response rating, Goosegrass (goosegrass; [2]) | Plant response rating, Goosegrass (goosegrass; [5]) | Plant response rating, Morningglory (pitted morningglory; [1]) | Plant response rating, Guineagrass (guineagrass; [3]) | Plant response rating, Bromegrass, Downy (downy bromegrass; [4]) | Plant response rating, Bromegrass, Downy (downy bromegrass; [5]) | Plant response rating, Horseweed (Canada horseweed; [2])

CCN1N=C(C(C)(C)C)CC1C(=O)Nc1cc(C(=O)N(C)C)ccc1F (stereo not shown) [Compound 268, N-[5-[(dimethylamino)carbonyl]-2-fluorophenyl]-3-(1,1-dimethylethyl)-1-ethyl-4,5-dihydro-1H-pyrazole-5-carboxamide]
60: Plant response rating, Windgrass (windgrass; [7]) | Plant response rating, Morningglory (pitted morningglory; [6])
80: Plant response rating, Crabgrass, Large (large crabgrass; [4]) | Plant response rating, Goosegrass (goosegrass; [4]) | Plant response rating, Bromegrass, Downy (downy bromegrass; [4]) | Plant response rating, Bromegrass, Downy (downy bromegrass; [5]) | Plant response rating, Mallow (common mallow; [5])
20: Plant response rating, Oat, Wild (wild oat; [8])
30: Plant response rating, Barley, Winter (winter barley; [9]) | Plant response rating, Canarygrass (canarygrass; [7]) | Plant response rating, Windgrass (windgrass; [8])
45: Plant response rating, Foxtail, Green (green foxtail; [7])
15: Plant response rating, Barley, Winter (winter barley; Postemergence, 125 g ai/ha, scale 0 to 100, 0 no effect, 100 complete control)
10: Plant response rating, Canarygrass (canarygrass; [10]) | Plant response rating, Canarygrass (canarygrass; [8]) | Plant response rating, Morningglory (pitted morningglory; [3]) | Plant response rating, Morningglory (pitted morningglory; [4])
95: Plant response rating, Crabgrass, Large (large crabgrass; [5]) | Plant response rating, Crabgrass, Large (large crabgrass; [6]) | Plant response rating, Goosegrass (goosegrass; [5]) | Plant response rating, Goosegrass (goosegrass; [6])
100: Plant response rating, Windgrass (windgrass; [9]) | Plant response rating, Guineagrass (guineagrass; [5]) | Plant response rating, Guineagrass (guineagrass; [6]) | Plant response rating, Bromegrass, Downy (downy bromegrass; [6])
90: Plant response rating, Mallow (common mallow; [6])
35: Plant response rating, Oat, Wild (wild oat; [7])
40: Plant response rating, Foxtail, Green (green foxtail; [8]) | Plant response rating, Morningglory (pitted morningglory; [5])
65: Plant response rating, Oat, Wild (wild oat; [9])
0: Plant response rating, Barley, Winter (winter barley; [10]) | Plant response rating, Barley, Winter (winter barley; postemergence, 62 g ai/ha, scale 0 to 100 (0 no effect, 100 complete control))
50: Plant response rating, Canarygrass (canarygrass; [9]) | Plant response rating, Foxtail, Green (green foxtail; [9]) | Plant response rating, Mallow (common mallow; [3]) | Plant response rating, Mallow (common mallow; [4])
70: Plant response rating, Crabgrass, Large (large crabgrass; [3]) | Plant response rating, Goosegrass (goosegrass; [3]) | Plant response rating, Guineagrass (guineagrass; [3])
85: Plant response rating, Guineagrass (guineagrass; [4])
